Test results: ChEMBL document CHEMBL1152822, “Genetic analysis of the dihydrofolate reductase-thymidylate synthase gene from geographically diverse isolates of Plasmodium malariae” (Antimicrob Agents Chemother, 2007)
In brackets after ≈: the same amount, converted by molar mass.

What was measured:
Assay type in all cases: functional, organism-based
[1] = tested on: Plasmodium vivax; experiment: Antiplasmodial activity against Plasmodium vivax
[2] = tested on: Plasmodium malariae; experiment: Antimalarial activity as inhibition of schizont maturation against Plasmodium malariae Thai after 40 - 70 hrs
[3] = tested on: Plasmodium falciparum; experiment: Antiplasmodial activity against Plasmodium falciparum

Row | Structure (SMILES) | IC50 [1] [µg/mL] | IC50 [2] [µg/mL] | IC50 [3] [µg/mL]
1 | CCN(CC)CCCC(C)Nc1ccnc2cc(Cl)ccc12.Cl (stereo not given) | 0.05 | 0.0749 | 
2 | CCc1nc(N)nc(N)c1-c1ccc(Cl)cc1 [PYRIMETHAMINE] | 0.008 (≈ 0.0322 µM) | 0.00224 (≈ 0.00901 µM) | 4.08 (≈ 16.4 µM)
